# Source: patent publication US11845770B2, “Ascaroside derivatives and methods of use” (California Institute of Technology, priority 2019, dated 2023)
# “Also recorded” adds a separate entry of the source.
# What was measured:
# [1] = system: esophageal eosinophil infiltrate; assay: Eosinophilic esophagitis model, L2-IL5 transgenic mouse sensitized/locally challenged with oxazolone; format: in vivo; conditions: L2-IL5 mice, OXA, Day 13; for eosinophilia of the esophagus (MBP staining, eosinophils/400× hpf): FIG. 24
# Excerpt: From the observation of increased local expression of Interleukin-5 (IL-5) in EoE, transgenic mouse with targeted IL-5 expression to the esophageal squamous epithelia using the Epstein-Barr virus ED-L2 (EBV-ED-L2) gene promoter was generated. […] Even though squamous epithelial-specific IL-5 expression alone induced a significant esophageal eosinophilia encompassing the length of the esophagus, this eosinophilia was not accompanied by the density of histopathological changes such as eosinophilic micro abscesses characteristic of EoE. However, L2-IL5 transgenic mice upon sensitization and subsequent localized topical esophageal challenge with 4-ethoxymethylene-2-phenyl-2-oxazolin-5-one (OXA), a molecule known to induce T-helper cell (Th) type 2 responses, developed key histopathological features, including epithelial hyperplasia and eosinophilic micro abscesses that erupt through the epithelium into the esophageal lumen. Immunohistochemical staining of the eosinophil secondary granule major basic protein (MBP-1) was used to assess the induced esophageal eosinophilia and eosinophil degranulation. […] However, this response was small compared to the induced eosinophilia and associated degranulation that occurred in OXA-treated L2-IL5 transgenic mice (Masterson et al. Gut. 2014, 63, 1-25, which is hereby incorporated by reference in its entirety).
# Prior to the OXA sensitization and topical local challenge model of delayed contact hypersensitivity, L2-IL5 transgenic mice were intraperitoneally (IP) injected with compounds or vehicle at 8, 4, and 2 days before sensitization at Day zero (schematic timeline in FIG. 20A). Compounds are prepared by dissolving in dimethyl sulfoxide (DMSO) as master stocks. Fresh working stock compounds in water are prepared for each day of injection and 100 μL of working stock or vehicle is IP injected per mouse. On day zero of the OXA sensitization/local challenge, a 2 cm×2 cm area of abdominal skin of anaesthetized experimental animals was shaved and OXA was applied to the skin surface (150 μl of a 3% (w/v) solution of OXA in 4:1 acetone-olive oil vehicle) to initiate the sensitization phase of the protocol. Sensitized mice then received topical OXA challenges of the esophagus by gavage on protocol Day 5, 8 and 12 after OXA sensitization with 100 μL of a 1% (w/v) solution of OXA in 30% ethanol/olive oil vehicle into the proximal esophagus. In addition, compounds or vehicle were IP injected on Day 5, 8, and 12 after OXA sensitization. All mice were sacrificed, and esophagus collected for histology 24 hours following the last OXA challenge on Day 12 (FIG. 20A). Immunohistochemical staining using a rat monoclonal anti-mouse MBP-1 antibody was conducted to highlight esophageal eosinophil infiltration and localized degranulation. A quantitative assessment of the esophageal eosinophil infiltrate in each group of mice was determined across nine high powered field (hpf) of view, three distal ([…] (Prox)) regions and expressed as group mean data of the eosinophil density (ie, eosinophils/400× hpf) (FIG. 20B). In addition, the eosinophilia is recorded according to the different (epithelial, lamina propia, and muscle) cell layers of the esophagus (FIG. 20C).
# of NDM-X in water (20 μL of master stock in […] of water) and 0.231 μg/L of 1 in water (22 μL of master stock in 1078 μL of water) for each injection cohort that are […], respectively. On Day zero of the OXA sensitization/local challenge, a 2 cm×2 cm area of abdominal skin of anaesthetized experimental animals was shaved and OXA was applied to the skin surface to initiate the sensitization phase of the protocol. Sensitized mice then received topical OXA challenges of the esophagus by gavage on protocol Day 5, 8 and 12 after OXA sensitization in the proximal esophagus. […]
# [2] = system: BEAS-2B human lung epithelial cells; assay: Stimulation of BEAS-2B human lung epithelial cells, cytokine expression; format: cell-based; conditions: 48 h
# Protocol: BEAS-2B cells were maintained in Bronchial Epithelial Cell Growth Basal Medium (BEBM) containing all the recommended supplements for the Bronchial Epithelial Cell Growth Medium (BEGM; Lonza #CC-4175) and allowed to attain approximately 70% confluency with media changed every 2-3 days at 37° C. with 5% (v/v) CO2. Tissue culture flasks/vessels were pre-coated with a mixture of 0.01 mg/mL fibronectin (Sigma), 0.03 mg/ml bovine collagen type I (Sigma) and 0.01 mg/mL bovine serum albumin dissolved in the BEBM. BEAS-2B cells were seeded with 0.5 ml of 1×10^6 cells/mL in BEGM per well on 24-well plates and incubated overnight at 37° C. with 5% (v/v) CO2. The cells are pre-treated with different concentrations of compounds (0, 1.0, 10, 100, 1000 μM) for 1 hour prior to stimulation. To stimulate the cells, 10 ng/mL of Interleukin-1 beta (IL-1β), 10 ng/mL of Lipopolysaccharides (LPS), or 20 ng/mL of IL-1$ is added to the wells without removing the media and incubated for 48 hours at 37° C. with 5% (v/v) CO2. Supernatants were collected and stored at −80° C. until quantitative detection assays are performed. Human Eotaxin, Monocyte Chemoattractant Protein-1 (MCP-1), Interleukin-6 (IL-6), Interleukin-25 (IL-25), Interleukin-33 (IL-33), Thymic stromal lymphopoietin (TSLP), and Granulocyte-Macrophage Colony-Stimulating Factor (GM-CSF) released from supernatants collected post stimulation were measured using Human Magnetic Luminex® Assay Kit. Human CCL5/RANTES was measured using an Enzyme-Linked Immunosorbent Assay (ELISA)-based analysis.
# CYP2C19 = target: T1, CYP2C19 (Homo sapiens, UniProt P33261); assay: 5 in 1 CYP inhibition assay, CYP2C19; format: in vitro ADME; conditions: microsomes, probe S-mephenytoin (4′-hydroxylation), test compound 10 μM, n=2, read-out: inhibition of cytochrome P450 isoform 2C19
# T1 construct: from tissue
# Protocol: CYP450 dependent activities were determined using a marker substrate cocktail. For each reaction, enzyme activities in the presence and absence of test compound (10 μM) were measured in duplicate. A known inhibitor for each isoform, tested at a single concentration (3 μM, n=2), was included as positive control. Incubation mixtures containing microsomes, substrate, and standard inhibitor or test compound were warmed at 37° C. for 10 minutes. Reactions were initiated by addition of the NADPH and incubated for 10 min. [table] After incubation, ice cold acetonitrile was added to terminate the reaction. Generation of metabolites from the substrate reactions was determined by LC-MS/MS.
# [3] = High Dose IP (0.92 mg/kg 1; 0.77 mg/kg NDM-X), FIG. 21
# [4] = Low Dose IP (0.014 mg/kg 1; 0.012 mg/kg NDM-X), FIG. 22
# [5] = 10 ng/mL IL-1β, compound concentration series, FIG. 10A
# [6] = 10 ng/mL IL-1β, compound concentration series, FIG. 10B
# [7] = at 100 μM, 10 ng/mL IL-1β, FIG. 10A
# [8] = at 100 μM, 10 ng/mL IL-1β, FIG. 10B
# [9] = 10 ng/mL LPS, compound concentration series, FIG. 11A
# [10] = 10 ng/mL LPS, compound concentration series, FIG. 11B
# T1 sequence (P33261 whole entry, canonical isoform): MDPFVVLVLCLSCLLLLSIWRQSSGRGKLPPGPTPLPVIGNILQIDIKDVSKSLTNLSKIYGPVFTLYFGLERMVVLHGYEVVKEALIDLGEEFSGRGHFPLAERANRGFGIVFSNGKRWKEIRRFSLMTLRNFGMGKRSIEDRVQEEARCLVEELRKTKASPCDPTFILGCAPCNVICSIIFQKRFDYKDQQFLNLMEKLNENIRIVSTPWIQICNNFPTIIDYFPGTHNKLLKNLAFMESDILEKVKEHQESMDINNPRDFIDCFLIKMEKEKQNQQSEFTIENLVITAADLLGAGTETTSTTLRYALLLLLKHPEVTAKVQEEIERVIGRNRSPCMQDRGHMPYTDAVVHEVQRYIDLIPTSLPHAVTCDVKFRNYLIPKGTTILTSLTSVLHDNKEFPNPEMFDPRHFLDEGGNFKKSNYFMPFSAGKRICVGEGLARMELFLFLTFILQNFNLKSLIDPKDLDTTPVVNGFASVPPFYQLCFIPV
compound,measurement,setting,value
"C[C@H](CC/C=C/C(=O)OC(C)(C)C)O[C@@H]1O[C@@H](C)[C@H](O)C[C@H]1O [Compound 1, tert-butyl (2E,6R)-6-{[(2R,3R,5R,6S)-3,5-dihydroxy-6-methyloxan-2-yl]oxy}hept-2-enoate]","eosinophilia of the esophagus, dose dependence","[1]; 0.092 mg/kg Mid Dose and 0.92 mg/kg High Dose IP, FIG. 23","dose-dependently inhibited eosinophilia in the epithelial, lamina propria, and muscle cell layers of the distal, middle, and proximal regions of the esophagus"
same,"eosinophilia of the esophagus (MBP-1 staining, eosinophils/400× hpf)","[1]; 0.92 mg/kg High Dose IP, FIG. 23","statistically significant inhibition of the eosinophilic esophagitis observed in epithelial cell layer of distal, middle, and proximal regions of the esophagus; also recorded: statistically significant inhibition of the eosinophilia observed in the lamina propria and muscle cell layers of the middle section of the esophagus; also recorded: statistically significant reduction in eosinophilia observed in all cell layers of the middle and proximal sections as well as the whole esophagus"
same,"eosinophilia of the esophagus (MBP-1 staining, eosinophils/400× hpf)",[1]; [3],"statistically significant inhibition of eosinophilic esophagitis in the epithelial, lamina propria, and muscle layers of the distal, middle, and proximal cell layers of the esophagus; also recorded: more robust blocking of eosinophil esophagitis in the mouse model than compared to 0.77 mg/kg NDM-X High Dose"
same,"eosinophilia of the esophagus (MBP-1 staining, eosinophils/400× hpf)",[1]; [4],"statistically significant inhibition of the eosinophilia in all cell layers of the proximal region, epithelial cell layer of the distal region, and lamina propria cell layer of the middle section of the esophagus"
same,percent inhibition relative to Stimulated of IL-25 expression,[2]; [5],"statistically significant, dose-dependent inhibition"
same,percent inhibition relative to Stimulated of Eotaxin expression,[2]; [6],"statistically significant, dose-dependent inhibition"
same,percent inhibition relative to Stimulated of IL-6 expression,[2]; [7],"statistically significant, complete inhibition"
same,percent inhibition relative to Stimulated of IL-8 expression,[2]; [7],"statistically significant, complete inhibition"
same,percent inhibition relative to Stimulated of IL-25 expression,[2]; [7],"statistically significant, complete inhibition"
same,percent inhibition relative to Stimulated of IL-33 expression,[2]; [7],"statistically significant, complete inhibition"
same,percent inhibition relative to Stimulated of GM-CSF expression,[2]; [8],"statistically significant, complete inhibition"
same,percent inhibition relative to Stimulated of MCP-1 expression,[2]; [8],"statistically significant, complete inhibition"
same,percent inhibition relative to Stimulated of TSLP expression,[2]; [8],"statistically significant, complete inhibition"
same,"inhibition of expression of multiple inflammatory cytokines (IL-6, IL-8, IL-25, IL-33)","[2]; at 100 μM, 10 ng/mL LPS, FIG. 11A","complete, statistically significant inhibition"
same,"inhibition of expression of multiple inflammatory cytokines (GMCSF, MCP-1, TSLP)","[2]; at 100 μM, 10 ng/mL LPS, FIG. 11B","statistically significant, complete inhibition"
same,"inhibition at 10 min, 10 µM",CYP2C19,16.2%
"C[C@H](CC/C=C/C(=O)O)O[C@@H]1O[C@@H](C)[C@H](O)C[C@H]1O [ascr #7, reference compound]","eosinophilia of the esophagus (MBP staining, eosinophils/400× hpf)","[1]; 0.012 mg/kg Low Dose IP, listed as NDM-X","slightly better than 0.77 mg/kg High Dose of NDM-X in inhibiting the eosinophilia; also recorded: statistically significant inhibition of the eosinophilia observed in the epithelial, lamina propria, and muscle cell layers of the distal, middle, and proximal regions of the esophagus"
same,"eosinophilia of the esophagus (MBP staining, eosinophils/400× hpf)",[1]; 0.77 mg/kg High Dose IP,"statistically significant reduction of the eosinophilia in the epithelial and lamina propria cell layers of distal, middle, and proximal regions of the esophagus"
same,"eosinophilia of the esophagus (MBP-1 staining, eosinophils/400× hpf)",[1]; [3],"statistically significant reduction in the eosinophilia in the lamina propria and muscle cell layers of the distal, middle, and proximal regions of the esophagus"
same,"eosinophilia of the esophagus (MBP-1 staining, eosinophils/400× hpf)",[1]; [4],"statistically significant inhibition of the eosinophilia in all cell layers of the proximal region, the muscle cell layers in all regions, and the epithelial cell layer of the distal and proximal regions"
same,percent inhibition relative to Stimulated of IL-6 expression,[2]; [5],did not show convincing inhibition
same,percent inhibition relative to Stimulated of IL-8 expression,[2]; [5],did not show convincing inhibition
same,percent inhibition relative to Stimulated of IL-25 expression,[2]; [5],"statistically significant, dose-dependent inhibition"
same,percent inhibition relative to Stimulated of IL-33 expression,[2]; [5],did not show convincing inhibition
same,percent inhibition relative to Stimulated of Eotaxin expression,[2]; [6],"statistically significant, dose-dependent inhibition"
same,percent inhibition relative to Stimulated of GM-CSF expression,[2]; [6],did not demonstrate convincing inhibition
same,percent inhibition relative to Stimulated of MCP-1 expression,[2]; [6],did not demonstrate convincing inhibition
same,percent inhibition relative to Stimulated of TSLP expression,[2]; [6],did not demonstrate convincing inhibition
same,percent inhibition relative to Stimulated of IL-6 expression,[2]; [9],did not show convincing inhibition
same,percent inhibition relative to Stimulated of IL-8 expression,[2]; [9],did not show convincing inhibition
same,percent inhibition relative to Stimulated of IL-25 expression,[2]; [9],did not show convincing inhibition
same,percent inhibition relative to Stimulated of IL-33 expression,[2]; [9],did not show convincing inhibition
same,percent inhibition relative to Stimulated of GM-CSF expression,[2]; [10],did not show convincing inhibition
same,percent inhibition relative to Stimulated of MCP-1 expression,[2]; [10],did not show convincing inhibition
same,percent inhibition relative to Stimulated of TSLP expression,[2]; [10],did not show convincing inhibition
same,percent inhibition relative to Stimulated of IL-25 expression,"[2]; 20 ng/mL IL-1β, compound concentration series, FIG. 12","statistically significant, dose-dependent blocking"
same,percent inhibition relative to Stimulated of Eotaxin expression,"[2]; at 10 and 100 μM, 20 ng/mL IL-1β, FIG. 13","statistically significant, almost complete blocking"
same,"inhibition at 10 min, 10 µM",CYP2C19,4%
